These results are taken from PMC5526551, “New hydrazonoindolin-2-ones: Synthesis, exploration of the possible anti-proliferative mechanism of action and encapsulation into PLGA microspheres” (PLoS ONE, 2017).

For data set [1], the target named is glycogen synthase kinase 3 beta (GSK-3β). To be noted: read-out: IC50 GSK-3β; binding to the ATP pocket; cited from earlier work.
The subject of data set [2] is cyclin-dependent kinases (CDKs). The settings on record: read-out: IC50 CDKs; binding to the ATP pocket; cited from earlier work.
The next data set relates to NCI cell lines. Also on record: method as in PMID 17073710, PMID 16860559. To be noted: against 46 out of 53 NCI cell lines; cited from earlier work.
In the next data set the test system is A549. The experiment in a line: Anti-proliferative activity, cell growth inhibition (CellTiterGlo, 72 h). The class given is cell-based, human. To be noted: Homo sapiens; for inhibition at 30 µM: A549, quadruplicate, read-out: Cell growth inhibitory activity, A-549. The method, then: (§1) Twenty compounds, i.e. 4a-o and 7a-e, were analyzed for cancer cell growth inhibitory activity. These studies were carried out using cells derived from human lung, colon and breast tumors (A549, HT-29 and ZR-75 cells, respectively). This initial assessment of activity tested each compound in quadruplicate at a single concentration of 30 μM, if solubility permitted.
(§2) A549, HT-29, ZR-75 were obtained from the American Type Culture Collection (ATCC). Cells were harvested from 90-95% confluent 10 cm dishes, and diluted in growth media (RPMI-1640 supplemented with 5% fetal bovine serum). An appropriate concentration of cells were prepared to add 1,250 cells in a volume of 25 µL per well in tissue culture treated Griener 384-well microplates, then incubated overnight at 37°C. Compound 7e was diluted to a concentration of 30 µM in DMSO. Concentrated dosing solutions of twice the final concentration were prepared by dilution of the DMSO stocks 1:500 in growth media. Two-fold serial dilutions were then prepared in medium containing 0.2% DMSO to maintain a constant concentration of vehicle throughout the concentration range of the compound. Each of these was added in an equal volume (25 µL) to four wells on each cell assay plate, along with the vehicle control. The highest concentration for serial dilutions of the positive control (sunitinib) was prepared exactly as the experimental compound 7e. Cells were incubated with the compounds for a further 72 h.
(§3) At the end of the treatment period, assay plates were allowed to cool to RT for 10 min prior to the addition of 25 µL per well Promega CellTiterGlo reagent, followed by additional 10 min incubation at RT. The resulting luminescence was quantitated using a Molecular Devices Spectramax Paradigm.
(§4) Percent growth inhibition was calculated as follows, where 100 represents the viability of vehicle treated control samples:
(§5) The potency of compounds was determined using the non-linear dose response algorithm (four-parameter logistic fit) with GraphPad Prism 5 software.

The test system of the next data set is HT-29. The data set is described as above. The class given is cell-based, human. To be noted: for IC50: 72 h; for inhibition at 30 µM: HT-29, quadruplicate, read-out: Cell growth inhibitory activity, HT-29. The protocol:
as §1, §2, §3, §4, §5

The subject of another data set is ZR-75. The description is as above. It counts as cell-based, human. To be noted: Homo sapiens; for inhibition at 30 µM: ZR75, quadruplicate, read-out: Cell growth inhibitory activity, ZR-75. The protocol: as §1, §2, §3, §4, §5
In data set [3] the test system is HT-29, ZR-75 and A-549 cell lines. The experiment in a line: Average anti-proliferative activity over the three cancer cell lines. The class given is cell-based, human. The settings on record: average of HT-29, ZR-75, A-549; for inhibition at 30 µM: read-out: Average Growth Inhibition %; for inhibition at 30 µM / Average Growth Inhibition %: 30 μM. The method, then: as §1
Therefore, they were subjected to quantitative inhibitory concentration 50% (IC50) determination for their cell growth inhibitory activity towards the A549, HT-29 and ZR-75 cancer cell lines.
as §2, §5

What is called IC50 is the concentration at which inhibition is half-maximal. As usually defined, the GI50 is the concentration at which growth is held to half of that of the control. The melting point is the temperature, or range, at which the solid turns liquid.

Bounds are passed on as bounds.

Regarding `O=C1Nc2ccccc2/C1=C1/Nc2ccccc2C1=O` [indirubin, Indirubin], the IC50 was […] in data set [1] and 75 µM in data set [2].
With `Cc1cc(C)c(/C=C2\C(=O)Nc3ccccc32)[nH]1` [Semaxanib], in the data set on NCI cell lines, the GI50 is less than 10 nM.
For `O=C1Nc2ccc(Cl)cc2C1=NN=C1C(=O)N(Cc2ccccc2)c2ccccc21` [Compound 7d, 1-Benzyl-3-((5-chloro-2-oxoindolin-3-ylidene)hydrazono)indolin-2-one], the melting point was in the range of 258 to 260 °C. The IC50 with A549 (A549, 72 h, read-out: IC50 A-549) was 4.13 µM. Further, the inhibition at 30 µM in the data set with A549 is 98.4 ± 0.6%. Also, in the data set with HT-29, the IC50 is 3.62 µM. For the same compound, in the data set with HT-29 (Homo sapiens, HT-29, 72 h), inhibition was half-maximal at 3.82 µM (IC50). For the same compound, in the data set with HT-29 (Homo sapiens), the inhibition at 30 µM came to 97 ± 1.8%. Further, in the data set with ZR-75 (ZR75, 72 h), the IC50 was determined as 2420 nM. In addition, in the data set on ZR-75, the inhibition at 30 µM came to 97.8 ± 1.8%. Besides, in data set [3] (Homo sapiens), the inhibition at 30 µM was 97.7% and half-maximal inhibition (IC50) required 3.39 µM.
`COc1cc(C=NN=C2C(=O)Nc3ccc(Cl)cc32)cc(OC)c1OC` [Compound 4j, 5-Chloro-3-((3,4,5-trimethoxybenzylidene)hydrazono)indolin-2-one] returned a melting point of 245 to 247 °C. The inhibition at 30 µM in the data set on A549 was found to be 1.7 ± 17.5%. The inhibition at 30 µM in the data set on HT-29 (Homo sapiens) is 6.9 ± 4.2%. Moreover, the inhibition at 30 µM with ZR-75 turned out to be 18.1 ± 21.2%. For the same compound, the inhibition at 30 µM in data set [3] (Homo sapiens) is 8.9%.
Consider `COc1cc(C=NN=C2C(=O)Nc3ccc(Br)cc32)cc(OC)c1OC` [Compound 4o, 5-Bromo-3-((3,4,5-trimethoxybenzylidene)hydrazono)indolin-2-one], for which the melting point is 261 to 263 °C. Further, the inhibition at 30 µM with A549 is -3.4 ± 6.6%. Further, the inhibition at 30 µM in the data set on HT-29 (Homo sapiens) is -1.1 ± 9%. For the same compound, the inhibition at 30 µM in the data set on ZR-75 amounted to 3.1 ± 8.2%. The “Average Growth Inhibition %” value in data set [3] is reported as “stimulated the growth”. Also, in data set [3] (Homo sapiens), the inhibition at 30 µM was -0.5%.
On to `COc1cc(C=NN=C2C(=O)Nc3ccc(Br)cc32)ccc1O` [Compound 4m, 5-Bromo-3-((4-hydroxy-3-methoxybenzylidene)hydrazono)indolin-2-one], for which the melting point fell in the range of 285 to 287 °C. Further, the inhibition at 30 µM in the data set on A549 was 83.7 ± 10.3%. Moreover, in the data set on HT-29 (Homo sapiens), the inhibition at 30 µM came to 42.1 ± 1.8%. In the data set on ZR-75, the inhibition at 30 µM was 58.7 ± 16%. The inhibition at 30 µM in data set [3] (Homo sapiens) turned out to be 61.5%.
For `COc1cc(C=NN=C2C(=O)Nc3ccccc32)cc(OC)c1OC` [Compound 4e, 3-((3,4,5-Trimethoxybenzylidene)hydrazono)indolin-2-one] the same measures were 240 to 241 °C, 93.6 ± 3.6%, 81.9 ± 5.4%, 86.1 ± 3.8% and 87.2%.
`COc1ccc(C=NN=C2C(=O)Nc3ccccc32)cc1` [Compound 4a, 3-((4-Methoxybenzylidene)hydrazono)indolin-2-one] showed a melting point of 277 to 279 °C. Moreover, the inhibition at 30 µM in the data set on A549 amounted to 27.1 ± 20.3%. The inhibition at 30 µM in the data set with HT-29 (Homo sapiens) turned out to be 19.5 ± 12.4%. The inhibition at 30 µM with ZR-75 is 34.8 ± 23.7%. In data set [3] (Homo sapiens), the inhibition at 30 µM was determined as 27.2%.
With `O=C1Nc2ccccc2C1=NN=C1C(=O)N(Cc2ccccc2)c2ccccc21` [Compound 7c, 1-Benzyl-3-((oxoindolin-3-ylidene)hydrazono)indolin-2-one], the melting point fell in the range of 255 to 257 °C. In addition, the inhibition at 30 µM in the data set with A549 was determined as 86.6 ± 9.9%. Also, in the data set with HT-29 (Homo sapiens), the inhibition at 30 µM is 73.8 ± 4.4%. In addition, in the data set with ZR-75, the inhibition at 30 µM was 92.1 ± 3.8%. Also, in data set [3] (Homo sapiens), the inhibition at 30 µM was 84.2%.
For `COc1ccc(C=NN=C2C(=O)Nc3ccc(Br)cc32)cc1O` [Compound 4l, 5-Bromo-3-((3-hydroxy-4-methoxybenzylidene)hydrazono)indolin-2-one] the same measures were 278 to 280 °C, 46.6 ± 9.5%, 45.9 ± 9.8%, 44.3 ± 18.4% and 45.6%.
Compound `COc1ccc(C=NN=C2C(=O)Nc3ccc(Br)cc32)cc1` [Compound 4k, 5-Bromo-3-((4-methoxybenzylidene)hydrazono)indolin-2-one] returned a melting point of 290 to 292 °C. Besides, in the data set on A549, the inhibition at 30 µM is -6.9 ± 9.4%. For the same compound, the inhibition at 30 µM in the data set with HT-29 (Homo sapiens) is -0.6 ± 7.2%. In addition, in the data set on ZR-75, the inhibition at 30 µM is -5.3 ± 18.1%. Further, the “Average Growth Inhibition %” value in data set [3] is on record as “stimulated the growth”. Besides, the inhibition at 30 µM in data set [3] (Homo sapiens) was -4.3%.
For the compound `CN1C(=O)C(=NN=C2C(=O)Nc3ccc(F)cc32)c2ccccc21` [Compound 7a, 5-Fluoro-3-((1-methyl-2-oxoindolin-3-ylidene)hydrazono)indolin-2-one], the melting point fell in the range of 295 to 297 °C. Also, in the data set with A549, the inhibition at 30 µM worked out at 91.6 ± 4.8%. The inhibition at 30 µM in the data set on HT-29 (Homo sapiens) is 84.8 ± 3.6%. Moreover, the inhibition at 30 µM with ZR-75 came to 78.6 ± 9.9%. In addition, in data set [3] (Homo sapiens), the inhibition at 30 µM was 85%.
